According to PMC6100056, “Antitumor Effects and Delivery Profiles of Menahydroquinone-4 Prodrugs with Ionic or Nonionic Promoiety to Hepatocellular Carcinoma Cells” (Molecules : A Journal of Synthetic Chemistry and Natural …, 2018):
Counter-ions that a name gives are not always drawn.

Key:
[1] = parameters: method as in PMID 21574174; settings: clinical dose (45 mg/day) or double dose (90 mg/day); trial in Japan; cited from earlier work
SK-Hep-1 cells [2] = assay: MKH delivery into HCC cells: intracellular MKO and MK-4 concentration-time profiles; format: in vitro ADME; settings: dose 25 μM, trapezoidal rule
Description: (§1) When assessing the delivery of MKH into HCC cells by MKH-ester prodrugs, although the MKH levels in HCC cells should be quantified, it is difficult to determine an accurate MKH level owing to its rapidly oxidative characteristics to MK-4. Concomitant with γ-carboxylation in producing of vitamin K-dependent proteins, MKH is stoichiometrically converted to MK-4 epoxide (MKO), as shown in Figure 1. Thus, MKO levels in HCC cells can reflect the levels of MKH. In addition, the intracellular MK-4 in HCC cells after MKH-DMG treatment is the oxidative product of MKH, which is generated by hydrolysis of MKH-DMG [22]. The estimation rules of MKH in an earlier report were adopted in this study, in which the sum of MKO and MK-4 levels after MKH-ester prodrug treatment was regarded as the MKH level delivered into HCC cells. In MK-4 treatment, the MKH level was assessed by determining the level of MKO.
(§2) MKH delivery into HCC cells with 25 μM MKH-ester derivatives was determined after 1, 3, 6, 12 or 24 h of incubation. […] The AUC0–24h values for MKO (AUCMKO), MK-4 (AUCMK-4) and MKH (AUCMKH) were calculated using the trapezoidal rule (Table 3). […]
(§3) HCC cells were plated at 1.5 × 10^5 cells/well in 6-well plates and allowed to attach for 48 h. […] The protein concentration of the cell homogenate was determined using a BCA protein assay kit. […]

PLC/PRF/5 cells [3] = assay: as above; format: in vitro ADME; settings: dose 25 μM, trapezoidal rule
Description: as §1, §2, §3

[4] = system: cyclin D1 and CDK4 in PLC/PRF/5 cells; assay: Western blotting of cell cycle regulatory proteins; format: cell-based; settings: 24 h after treatment
Method: We previously reported that MKH-DMG regulates cell cycle-related proteins as a mechanism of MKH-DMG-induced growth inhibition in PLC/PRF/5, Hep3B and SK-Hep-1 cells. Thus, to clarify the mechanisms of the growth inhibition induced by the MKH-ester prodrugs, we analyzed cell cycle-related proteins using Western blotting (Figure 7).
HCC cells were plated at 1.5 × 10^5 cells/well in 6-well plates and allowed to attach for 48 h. Cells were treated with MK-4, MKH-ACT, MKH-DMG or MKH-SUC for 24 h. Western blotting was performed as described previously.

SK-Hep-1 cells [5] = assay: Cell viability assay (Cell Titer-Glo); format: cell-based; settings: for IC50: Homo sapiens, 95% confidence interval in square brackets
Method: (§4) To assess the effects of MKH-ester prodrugs on HCC cell proliferation, DCP-positive (PLC/PRF/5) and DCP-negative (SK-Hep-1) HCC cell lines were treated with various concentrations of MKH-ACT, MKH-DMG, MKH-SUC or MK-4 up to 96 h, and cell viability was determined.
(§5) Cell viability was determined using a previously reported method. Briefly, PLC/PRF/5 and SK-Hep-1 cells were plated at 5.0 × 10^3 cells/well in 96-well plates and allowed to attach for 48 h. MK-4 and MKH-ACT were dissolved in 99.5% ethanol. MKH-SUC was dissolved in DMSO. MKH-DMG was dissolved in sterilized water. Stock solutions of each drug (50 mM) were diluted to the intended final concentrations with medium. Cells were exposed to MK-4, MKH-ACT, MKH-DMG or MKH-SUC for up to 96 h, and cell viability was evaluated using the Cell Titer-Glo Luminescent Cell Viability Assay (Promega, Madison, WI, USA) according to the manufacturer’s instructions. IC50 values were determined by a log [drug] vs. normalized response-variable slope analysis of GraphPad Prism, version 6.0 (GraphPad Software, San Diego, CA, USA).

PLC/PRF/5 cells [6] = assay: Cell viability assay (Cell Titer-Glo); format: cell-based; settings: for IC50: Homo sapiens, 95% confidence interval in square brackets
Method: as §4, §5

SMILES	melting point	Effect on cumulative recurrence of HCC [1]	AUC0–24h for MK-4 (SK-Hep-1 cells [2])	AUC0–24h for MK-4 (PLC/PRF/5 cells [3])	Effect on cyclin D1 and CDK4 expression compared with controls [4]	Inhibition of cell viability of the control (SK-Hep-1 cells [5]; 60 μM, 72 h)	Inhibition of cell viability of the control (SK-Hep-1 cells [5]; 60 μM, 96 h)	Inhibition of cell viability of the control (SK-Hep-1 cells [5]; 20–40 μM, 96 h)	IC50 (SK-Hep-1 cells [5]; SK-HEP1, 72 h)	IC50 (SK-Hep-1 cells [5]; SK-HEP1, 96 h)	Inhibition of cell viability of the control (PLC/PRF/5 cells [6]; 40–60 μM, 96 h)	IC50 (PLC/PRF/5 cells [6]; 72 h)	IC50 (PLC/PRF/5 cells [6]; 96 h)
CC(C)=CCC/C(C)=C/CC/C(C)=C/CC/C(C)=C/Cc1c(C)c(OC(=O)CCC(=O)O)c2ccccc2c1OC(=O)CCC(=O)O (as salt: succinate) [MKH-SUC, Menahydroquinone-4 1,4-bis hemisuccinate]	179 to 181 °C	–	–	–	–	–	–	–	–	–	–	–	–
CC(C)=CCC/C(C)=C/CC/C(C)=C/CC/C(C)=C/CC1=C(C)C(=O)c2ccccc2C1=O [MK-4, menaquinone-4, reference compound]	–	did not find any statistically significant improvement	41.6 ± 9.04 nmol·h·mg Protein^−1	12.2 ± 4.19 nmol·h·mg Protein^−1	did not affect	about 20%	40%	20%	80.2 µM	88.2 µM	30–40%	188 µM	86.8 µM
